# Laboratory results from PubChem BioAssay AID1645865 (Buhrlage Lab, Dana-Farber Cancer Institute and Novartis …, 2021).
# Active and inactive are the calls of the source.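 Rule for the calls: active = maximal inhibition of the USP30 enzyme reaching 30% or more across the dose series; inactive = the rest.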
# Target: Ubiquitin carboxyl-terminal hydrolase 30 (Homo sapiens) (UniProt Q70CQ3)
# Test: inhibitors of ubiquitin-specific protease 30 deubiquitylating enzyme, concentration dependence, in vitro biochemical, validation of primary hits (AID 1645865)
# Details: purified USP30, Ub-rhodamine cleavage, fluorescence, 2 h
# Ubiquitin carboxyl-terminal hydrolase 30 (Homo sapiens), sequence (Q70CQ3 whole entry, looked up): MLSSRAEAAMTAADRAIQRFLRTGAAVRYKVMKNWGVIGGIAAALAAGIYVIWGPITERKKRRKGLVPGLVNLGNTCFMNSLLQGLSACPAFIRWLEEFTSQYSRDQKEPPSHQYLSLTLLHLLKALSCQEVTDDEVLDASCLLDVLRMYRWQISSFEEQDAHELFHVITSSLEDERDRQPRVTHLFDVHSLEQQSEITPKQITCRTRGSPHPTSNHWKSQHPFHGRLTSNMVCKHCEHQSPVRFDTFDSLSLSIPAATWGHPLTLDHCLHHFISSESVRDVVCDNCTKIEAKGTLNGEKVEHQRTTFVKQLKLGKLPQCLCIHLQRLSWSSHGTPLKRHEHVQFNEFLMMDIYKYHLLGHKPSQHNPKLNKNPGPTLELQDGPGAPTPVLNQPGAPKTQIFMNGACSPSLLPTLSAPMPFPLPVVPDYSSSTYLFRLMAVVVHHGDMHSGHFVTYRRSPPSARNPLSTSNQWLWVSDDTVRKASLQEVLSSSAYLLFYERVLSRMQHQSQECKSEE
row,SMILES,IC50
1,CCOc1ccc(-c2cc3nc(C4CCN(C(=O)OC(C)(C)C)CC4)c(C(=O)Nc4cc(F)ccc4F)cn3n2)cc1,> 50 µM (inactive)
2,O=C(c1ccco1)N1CCC2(CC1)CC1(CO2)Nc2ccccc2-n2cccc21 (configuration not stated),> 50 µM (inactive)
3,Cc1cc(=O)n2c3c(c4c(cc13)c(CO)cc(=O)n4C)OC2,> 5 µM (inactive)
4,CC1CCN(c2nc(F)c3c(c2F)S(=O)(=O)CCN3Cc2cccnc2)CC1,> 50 µM (inactive)
5,Cc1ccc(C(=O)Nc2cc3c4c(c2)CC(=O)N4CCC3)cc1,> 50 µM (inactive)
6,CCc1c(Cl)c(O)c(Cl)c(O)c1C(=O)O[C@H]1C(C)O[C@@H](OC/C2=C\C=C\CC(O)/C(C)=C/C(CC)C(O[C@@H]3OC(C)(C)[C@H](O)C(OC(=O)C(C)C)[C@@H]3O)/C(C)=C/C(C)=C/CC(C(C)O)OC2=O)[C@@H](OC)C1O (some centres not stated),> 50 µM (inactive)
7,CCCCCC(O)c1c(O)cc2c(c1O)C(=O)c1c(O)cc(O)cc1C2=O (configuration not stated),> 50 µM (inactive)
8,Cc1cccc(NC(=O)CN2C(=O)CC(c3ccccc3)S(=O)(=O)c3ccccc32)c1C (configuration not stated),22.1 µM
9,Cc1ccccc1NC(=O)c1nc(-c2cn(Cc3ccc(F)cc3)nn2)no1,3.46 µM
10,CSc1nc(SCC(N)=O)c2c3c(sc2n1)COC(C)(C)C3,30.6 µM
11,COc1cccc(NC(=O)Nc2nccn(-c3ccc(F)cc3)c2=O)c1,21.2 µM
12,Cc1ccc(-n2cc(C(=O)NCc3cccnc3)nn2)cc1C,21.6 µM
13,CC(=O)Nc1ccc(S(=O)(=O)N2CCCC(C(=O)Nc3cccc4ccccc34)C2)cc1 (configuration not stated),25.5 µM
14,COc1cccc(NC(=O)Nc2ccc(CCc3nc4ccccc4[nH]3)cc2)c1,28.2 µM
15,CC12c3ccc4c(c3C(=O)c3occ(c31)C(=O)CC2O)CCC4=O (configuration not stated),> 50 µM (inactive)
16,CCOC(=O)Nc1ccc(N2CCn3c(nc4ccccc43)C2)cc1OC,> 50 µM (inactive)
17,COc1cc(Cn2cnc3c([nH]c4ccc(Br)cc43)c2=O)cc(OC)c1,2.67 µM
18,Cn1c(=O)c2c(nc3n(-c4ccccc4F)c(-c4ccccc4)cn23)n(C)c1=O,> 50 µM (inactive)
19,COc1c(Cl)ccc2c(=O)c3c(O)c4c5c(c3oc12)OCO[C@H]5[C@@H](OC)c1cc2c(c(O)c1-4)C(=O)N(C)[C@H](OC)[C@@H]2O,4.94 µM
20,C=C(NC(=O)C(=C)NC(=O)c1csc(C2=N[C@@H]3c4csc(n4)[C@H]4NC(=O)c5csc(n5)[C@H]([C@](C)(O)[C@@H](C)O)NC(=O)[C@H]5CSC(=N5)/C(=C/C)NC(=O)C([C@@H](C)O)NC(=O)c5csc(n5)C3(CC2)NC(=O)[C@H](C)NC(=O)C(=C)NC(=O)[C@H](C)NC(=O)C([C@@H](C)CC)N[C@@H]2C=Cc3c(C(C)O)cc(nc3[C@H]2O)C(=O)OC4C)n1)C(N)=O (some centres not stated),> 50 µM (inactive)
21,CC(c1ccccc1)n1c(-c2ccc(F)cc2)nc2c(c(=O)c3ccccc3n2C)c1=O (configuration not stated),2.06 µM

row,SMILES,IC50
1,O=C(c1ccco1)N1CCN=C1SCc1ccccc1F,> 50 µM (inactive)
2,CCOc1ccc(CCNC(=O)c2cccc3c2C(=O)N(CCOC)C3)cc1OCC,> 50 µM (inactive)
3,N#Cc1cccnc1N1CCN(C(=O)Nc2cccc3ccccc23)CC1,> 50 µM (inactive)
4,Cn1cc2cccc(NC(=O)c3ccc(F)cc3)c2n1,> 50 µM (inactive)
5,COc1cc(C2SCC(=O)Nc3c2c(-c2ccccc2)nn3-c2ccccc2)cc(OC)c1OC (configuration not stated),> 50 µM (inactive)
6,CCn1cc2c(n1)c(=O)n(Cc1ccccc1)c(=O)n2CC(=O)Nc1ccc(OC)cc1,2.58 µM
7,COc1ccc(C(=O)Nc2ccc(S(=O)(=O)N3CCCCC3)cc2)cc1,> 50 µM (inactive)
8,Fc1ccc(CN2CCc3nc4cccnc4cc3C2)cc1,> 50 µM (inactive)
9,COc1c(O)c(O)c2c(=O)cc(-c3ccc(O)cc3)oc2c1OC,> 50 µM (inactive)
10,Cc1ccc(C)c(Cn2nnc3c(=O)[nH]c(C4CCN(S(=O)(=O)c5ccc(S(=O)(=O)NC6CC6)cc5)CC4)nc32)c1,30.4 µM
11,CCN(CC)c1nc(F)c2c(c1F)S(=O)(=O)CCN2Cc1cccnc1,> 50 µM (inactive)
12,NC(=O)c1nnn(-c2ccc(NC(=O)c3ccc(F)c(F)c3)cc2)n1,15 µM
13,O=C(Nc1cc(-c2cccnc2)no1)c1ccc(F)c(F)c1,20 µM
14,COc1ccc(-c2cc3c(=O)n(CC(=O)Nc4ccccc4Cl)ccn3n2)cc1,4.23 µM
15,O=c1c2cnc3nc(-c4cccnc4)nn3c2ccn1CCc1ccccc1,> 50 µM (inactive)
16,CC(=O)[C@H]1c2c(c(O)c3c(O)cccc3c2-c2c3c(c(O)c4c(O)cccc24)C(=O)C[C@](C)(O)[C@H]3C(C)=O)C(=O)C[C@]1(C)O,> 50 µM (inactive)
17,CC(C)(C)c1ccc(-c2nnc3n2-c2ccccc2SC3)cc1,19.1 µM
18,COc1cccc(NC(=O)C2Cc3ccccc3N2C(=O)c2ccccc2)c1 (configuration not stated),22.2 µM
19,Cc1oc(C2CC2)cc1C(=O)N1CCC2(CC1)CC1(CO2)Nc2ccccc2-n2cccc21 (configuration not stated),> 50 µM (inactive)
20,O=C(CNc1nc(Nc2ccccc2F)nc(Nc2ccccc2F)n1)Nc1ccccc1,33.4 µM
21,O=C(Nc1ccc2c(c1)OCCO2)C1CCN(C(=O)c2ccccc2)CC1,> 50 µM (inactive)

row,SMILES,IC50
1,Cc1ccc(NC(=O)c2ccc(N3CCOCC3)nn2)cc1F,39.7 µM
2,COc1cc(-c2cc(C(=O)Nc3cc(C)[nH]n3)c3ccccc3n2)cc(OC)c1OC,32.7 µM
3,CC(C)Cn1cc(OC(=O)c2ccc(F)cc2)c2c1nc(-c1ccc(F)cc1)n1c3ccccc3nc21,> 50 µM (inactive)
4,Nc1c(C(=O)c2cccs2)oc2nc(-c3ccccc3)cc(-c3ccco3)c12,> 50 µM (inactive)
5,COc1ccc(OC)c(NC(=O)C2=C(C)Nc3ncnn3C2c2ccccc2OCc2ccc(C)cc2)c1 (configuration not stated),17.5 µM
6,Cc1cccc(C)c1NC(=O)Cn1c(=O)n(CCCCC(=O)NCc2ccc3c(c2)OCO3)c(=O)c2ccccc21,1.5 µM
7,COc1ccc(CNC(=O)CSc2nc3nc(C)ccc3o2)cc1,19.7 µM
8,Cc1sc(NC(=O)CN2CCc3ccccc3C2)nc1-c1ccc2c(c1)CCN2C(=O)C1CCCCC1,> 50 µM (inactive)
9,CCCn1c(=O)n(CC(=O)c2ccccc2F)c2c(C(N)=O)nc(-c3ccco3)nc21,> 50 µM (inactive)
10,COc1ccc(CCNC(=O)c2cn(-c3ccc(F)cc3)nn2)cc1OC,6.79 µM
11,O=C(Nc1ccccc1)c1ccc2c(c1)CC(c1ccccc1)OC2=O (configuration not stated),7.72 µM
12,Cc1ccc2c(=O)c(C(=O)Nc3ccccc3)cn(CC(=O)NC3CCCCC3)c2n1,< 0.05 µM
13,COc1cccc(NC(=O)c2ccc(-c3csc(C)n3)cc2)c1,> 50 µM (inactive)
14,O=C(Nc1ccc(F)cc1F)NC1CCN(c2ccccc2)C1=O (configuration not stated),25.8 µM
15,CCCCNC(=O)C1Sc2nnc(-c3ccccc3)n2NC1c1ccccc1 (configuration not stated),21.8 µM
16,Fc1cccc(-n2cc(-c3noc(-c4ccccn4)n3)nn2)c1,27 µM
17,Cc1ccc(CNC(=O)c2cnc3ccccc3n2)cc1,> 50 µM (inactive)
18,Cc1c(-c2nnc(-c3ccccn3)o2)nnn1-c1cccc(Cl)c1,44.4 µM
19,Cc1ccc(Cn2cc(-c3noc(-c4ccncc4)n3)nn2)cc1,27.6 µM
20,Cc1ccccc1Cc1nc(-c2ccc(=O)[nH]c2)no1,> 50 µM (inactive)

# Further lines, results first:
row,IC50,SMILES
1,> 50 µM (inactive),CC1=C[C@H]2N(c3ccc(C)cc31)[C@H](C(=O)c1cccs1)[C@@H](C(=O)c1ccc(F)cc1)[C@]21C(=O)Nc2ccccc21
2,23.1 µM,O=C(COc1cccc2ccc(N3CCC(Cc4ccccc4)CC3)nc12)NCc1ccc(F)cc1
3,> 50 µM (inactive),Cc1ccc2nc(CNc3ccc(F)cc3C)cc(=O)n2c1
4,5.18 µM,COc1cccc(NC(=O)CSc2nnc(-c3cc4cccc(OC)c4o3)n2C)c1
5,> 50 µM (inactive),CC(=O)Nc1cc2cc(-n3cccc3)ccc2oc1=O
6,> 50 µM (inactive),COC(=O)c1cc2c(ccn2C)n1CC(=O)NC1CCCC1
7,> 50 µM (inactive),COc1cc(C(=O)OCc2csc(-c3ccccc3)n2)ccc1OCC(=O)Nc1ccc(F)cc1
8,> 50 µM (inactive),CCc1ccc2c(c1)[C@]1(C(=O)N2)[C@@H]2C(=O)N(c3ccc(Cl)cc3Cl)C(=O)[C@@H]2[C@@H]2CCCN21
9,21 µM,O=C(COc1ccc2ccccc2c1)Nc1cccc2ccccc12
10,> 50 µM (inactive),COc1ccc(CCNC(=O)COc2ncnc3oc(C)c(C)c23)cc1OC
11,> 50 µM (inactive),CN(C(=O)CSc1nnc(-c2cc3ccccc3n2C)o1)c1ccccc1
12,8.5 µM,Cc1cc(C)c2cc(C(=O)NC3CCN(Cc4ccccc4)CC3)[nH]c2c1
13,> 50 µM (inactive),COc1cc2c(cc1OC)C(COc1ccccc1OC)N(C(=O)c1ccc3ccccc3c1)CC2 (configuration not stated)
14,> 50 µM (inactive),O=C(CCc1nnc2n(Cc3ccc(F)cc3)c(=O)c3ccccc3n12)N1CCN(c2ccccn2)CC1
15,19.7 µM,CC(C)c1cc(NCc2ccccc2)n2nc(-c3cccnc3)nc2n1
16,17.9 µM,Cc1ccc2[nH]c3c(=O)n(CC4CCCO4)cnc3c2c1 (configuration not stated)
17,> 50 µM (inactive),Cc1ccc(Nc2nc(Nc3cccc(Cl)c3)nc3nccnc23)cc1
18,14.4 µM,O=C(Cn1c(-c2ccccc2)ncc(C(=O)NC2CC2)c1=O)Nc1ccccc1
19,29 µM,O=C(Nc1ccc(F)cc1F)NC1Cc2ccccc2C1
20,2.6 µM,Cc1c(-c2nn3c(-c4ccco4)nnc3s2)cccc1[N+](=O)[O-]
21,> 50 µM (inactive),CS(=O)(=O)n1nc(NCc2ccc(F)cc2)nc1NCc1ccc(F)cc1
22,2.51 µM,CC(=O)c1ccccc1NC(=O)COc1ccc(-c2ccc(C#N)cc2)cc1
23,33.8 µM,COC(=O)c1ccccc1NC(=O)CSc1nnc(-c2ccc(C(C)(C)C)cc2)n1C1CCCC1
24,2.28 µM,CCCCCC(=O)N1c2ccccc2NC2=C(C(=O)CC(c3ccc(C(C)(C)C)cc3)C2)C1c1ccncc1 (configuration not stated)
25,27.8 µM,C=C[C@]1(C)C=C2C(=O)[C@]3(O)OC(=O)[C@@]4(CCCC(C)(C)[C@H]34)[C@@]2(O)CC1
26,12.3 µM,Cc1cc(C)cc(N(CCC(=O)Nc2ccc(N3CCOCC3)cc2)S(=O)(=O)c2ccc(Cl)cc2)c1
27,10.7 µM,O=C(CSc1ccc2nnc(-c3ccccc3)n2n1)N1CCCc2ccccc21
28,37.8 µM,CN(C)c1cc(-n2cnc(C(=O)NCc3ccccc3Cl)c2)ncn1
29,40.1 µM,O=C(/C=C/c1ccco1)c1cccc([N+](=O)[O-])c1
30,> 50 µM (inactive),COc1ccc(-n2c(=O)c(CCC(=O)O)nc3ccccc32)cc1
